The nature of the data set: Phenomenex Kinetex C18, 150 × 2.1 mm, 1.7 µm, 30 °C, 0.3 mL/min; A: water + 0.1% formic acid; B: acetonitrile + 0.1% formic acid; gradient (min/%B) 0/2 14/100 17/100 17/2 25/2. The following applies: stereoisomer not certain.
Turning to `CC12CCC3C(CCC4=CC(=O)CCC43C)C1CC(O)C2=O` (stereo unspecified), the LC retention time stood at 8.39 min.
With `CC(O)C1(O)CCC2C3CCC4CC(O)CCC4(C)C3C(=O)CC21C` (stereo unspecified), the LC retention time turned out to be 8.66 min.
In the case of `CC(=O)C1=CCC2C3CCC4=CC(=O)CCC4(C)C3CCC12C` (stereo unspecified), the LC retention time turned out to be 12.7 min.
On to `CC12CCC3C(CCC4=CC(=O)CCC43CO)C1CCC2=O` (stereo unspecified), for which the LC retention time came to 7.72 min.
Next, `CC12CCC(=O)C=C1CCC1C2CCC2(C)C(OS(=O)(=O)O)CCC12` (stereo unspecified): 9.81 min; `CC12CCC3c4ccc(O)cc4C(=O)CC3C1CC(O)C2O` (stereo unspecified): 6.59 min.
For `CC12C=CC(=O)CC1CCC1C2CCC2(C)C(O)CCC12` (stereo unspecified), the LC retention time came out at 9.97 min.
With `CC12CC(O)C3C(CCC4=CC(=O)CCC43C)C1CCC2=O` (stereo unspecified) the figure was 8.87 min; with `CC12CCC3c4ccc(O)cc4CCC3C1C(O)CC2=O` (stereo unspecified), 7.7 min.
On to `CC(O)C1CCC2C3CCC4CC(=O)CCC4(C)C3CCC12C` (stereo unspecified), for which the LC retention time turned out to be 13.9 min.
Regarding `CC12CCC(O)CC1=CCC1C2CCC2(C)C(O)CCC12` (stereo unspecified), the LC retention time stood at 10.8 min.
With `CC12CCC(=O)C=C1CCC1C2C(O)CC2(C)C(C(=O)CC(=O)O)CCC12` (stereo unspecified), the LC retention time turned out to be 9.18 min.
Next, `CC12CCC(O)CC1CCC1C2CCC2(C)C1CCC2(O)C(=O)CO` (stereo unspecified): 10.1 min; `CC12CCC(=O)C=C1CCC1C2CCC2(C)C(C(=O)CO)CCC12` (stereo unspecified): 10.5 min.
In the case of `CC12CCC(O)CC1CCC1C2C2CC3(C(O)O2)C(C(=O)CO)CCC13` (stereo unspecified), the LC retention time is 7.18 min.
For the molecule `CC12CCC(O)CC1CCC1C2CCC2(C)C(C(=O)CO)CCC12` (stereo unspecified), the LC retention time was 11.3 min.
Regarding `CC12C=CCC1C1CCC3CC(O)CCC3(C)C1CC2` (stereo unspecified), the LC retention time came to 11.9 min.
Next, `CC12CCC3c4ccc(O)cc4CCC3C1CCC2=O` (stereo unspecified): 10.7 min.
As to `CC(=O)C1(O)CCC2C3CCC4=CC(=O)CCC4(C)C3CCC21C` (stereo unspecified), the LC retention time is 10.9 min.
Turning to `CC12CCC(O)CC1CCC1C2CC(O)C2(C)CCC(O)C12` (stereo unspecified), the LC retention time was found to be 6.31 min.
On to `CC12CCC3C4=CC(=O)C(=O)C=C4CCC3C1CCC2O` (stereo unspecified), for which the LC retention time was 7.58 min.
For `CC12CCC(=O)C=C1CCC1C2C(O)CC2(C)C(C(=O)CO)CCC12` (stereo unspecified), the LC retention time came out at 8.81 min.
Consider `CC12CCC3c4ccc(O)cc4C(O)CC3C1CCC2=O` (stereo unspecified), for which the LC retention time was found to be 7.97 min.
For `CC12CCC3c4ccc(OS(=O)(=O)O)c(O)c4CCC3C1CCC2=O` (stereo unspecified), the LC retention time was determined as 7.73 min.
As to `CC12CCC(=O)C=C1CCC1C2CCC2(C)C1CCC2(O)C(=O)CO` (stereo unspecified), the LC retention time amounted to 9.04 min.
Turning to `CC12CCC(=O)CC1CCC1C2C(O)CC2(C=O)C(C(=O)CO)CCC12` (stereo unspecified), the LC retention time was 7.97 min.
On to `CC12CCC3c4ccc(O)cc4CCC3C1C(O)CC2O` (stereo unspecified), for which the LC retention time worked out at 7.33 min.
Take `CC(=O)C1CCC2C3CC=C4CC(O)CCC4(C)C3CCC12C` (stereo unspecified): the LC retention time was found to be 13 min.
`CC12CCC(=O)C=C1CCC1C2C(O)CC2(C=O)C1CCC2(O)C(=O)CO` (stereo unspecified): the LC retention time was found to be 6.76 min.
For the molecule `CC12CCC3C(C(=O)CC4CC(O)CCC43C)C1CCC2=O` (stereo unspecified), the LC retention time stood at 8 min.
Next, `CC12CCCC1C1CC(O)C3(O)CC(O)CCC3(C)C1CC2` (stereo unspecified): 10.5 min; `CC12CCC3C4CCC(=O)CC4CCC3C1CCC2O` (stereo unspecified): 9.72 min; `CC12CCC(O)CC1=CCC1C2CCC2(C)C(C(=O)CO)CCC12` (stereo unspecified): 10.5 min.
With `COc1cc2c(cc1O)C1CCC3(C)C(O)CCC3C1CC2` (stereo unspecified) the figure was 9.26 min; with `COc1c(O)ccc2c1CCC1C2CCC2(C)C(=O)CCC12` (stereo unspecified), 9.74 min.
Next, `CC12CCC(=O)CC1CCC1C2CCC2(C)C(C(=O)CO)CCC12` (stereo unspecified): 11.6 min; `CC(=O)C1CCC2C3CCC4=CC(=O)CCC4(C)C3CCC12C` (stereo unspecified): 12.9 min.
Regarding `CC12CCC3C(C(O)CC4=CC(=O)CCC43C)C1CCC2=O` (stereo unspecified), the LC retention time turned out to be 7.78 min.
Regarding `CC(=O)C1(O)CCC2C3CC=C4CC(O)CCC4(C)C3CCC21C` (stereo unspecified), the LC retention time was found to be 10.7 min.
On to `CC12CCC(=O)C=C1CCC1C2CCC2(C)C1CCC2(O)CCO` (stereo unspecified), for which the LC retention time was found to be 10 min.
Consider `CC12CC(=O)C3C(CCC4CC(O)CCC43C)C1CCC2C(=O)CO` (stereo unspecified), for which the LC retention time was 9.06 min.
For `CC12CCC(=O)C=C1CCC1C2C(O)CC2(CO)C(C(=O)CO)CCC12` (stereo unspecified), the LC retention time is 7.34 min.
For the molecule `CC12CCC3C(CCC4=CC(=O)CCC43C=O)C1CCC2C(=O)CO` (stereo unspecified), the LC retention time came to 8.89 min.
With `CC12CCC(O)CC1CCC1C2C(O)CC2(C=O)C(C(=O)CO)CCC12` (stereo unspecified), the LC retention time came out at 7.76 min.
As for `CC(=O)C1CCC2C3=CC=C4CC(O)CCC4(C)C3CCC12C` (stereo unspecified), the LC retention time was found to be 11.6 min.
For `CC12CCC(O)CC1CCC1C2C(=O)CC2(CO)C(C(=O)CO)CCC12` (stereo unspecified), the LC retention time is 7.57 min.
For `CC(=O)C1C(O)CC2C3CC=C4CC(O)CCC4(C)C3CCC21C` (stereo unspecified), the LC retention time amounted to 9.87 min.
Regarding `CC12CCC(O)CC1=CCC1C2CCC2(C)C1CCC2(O)C(=O)CO` (stereo unspecified), the LC retention time worked out at 8.44 min.
Consider `CC12CCC(=O)C=C1CCC1C2C(O)CC2(CO)C1CCC2(O)C(=O)CO` (stereo unspecified), for which the LC retention time was 6.52 min.
For the molecule `CC12CCC3C(CCC4CC(OS(=O)(=O)O)CCC43C)C1CCC2=O` (stereo unspecified), the LC retention time came out at 10.5 min.
As to `CC(=O)C1(O)CCC2C3CCC4=CC(=O)CCC4(C)C3C(O)CC21C` (stereo unspecified), the LC retention time came out at 8.8 min.
As for `CC12CC(=O)C3C(CCC4CC(O)CCC43C)C1CCC2C(O)CO` (stereo unspecified), the LC retention time is 8.54 min.
In the case of `CC12CCC(=O)C=C1CCC1C2C(=O)CC2(C)C(C(=O)CO)CCC12` (stereo unspecified), the LC retention time was 8.53 min.
Next, `CC12CCC3c4ccc(O)c(O)c4CCC3C1CCC2=O` (stereo unspecified): 8.06 min.
With `CC(CCC(=O)O)C1CCC2C3CC=C4CC(O)CCC4(C)C3CCC12C` (stereo unspecified), the LC retention time amounted to 15.8 min.
As for `CC12CCC(O)CC1CCC1C2C(=O)CC2(C)C1CCC2(O)C(=O)CO` (stereo unspecified), the LC retention time came out at 8.38 min.
Next, `CC12CCC3c4cc(O)c(O)cc4CCC3C1CCC2O` (stereo unspecified): 7.86 min; `COc1cc2c(cc1O)C1CCC3(C)C(=O)CCC3C1CC2` (stereo unspecified): 9.83 min.
As to `CC(=O)C1CCC2C3C(O)C=C4CC(O)CCC4(C)C3CCC12C` (stereo unspecified), the LC retention time was 8.93 min.
Turning to `CC12CCC(=O)CC1CCC1C2CCC2(C)C(OS(=O)(=O)O)CCC12` (stereo unspecified), the LC retention time was 10.6 min.
`CC12CCC3C(CC=C4CC(=O)CCC43C)C1CCC2=O` (stereo unspecified): the LC retention time was found to be 11 min.
For the molecule `CC(O)C1(O)CCC2C3CCC4CC(O)CCC4(C)C3CCC21C` (stereo unspecified), the LC retention time came out at 11 min.
In the case of `COc1cc2c(cc1OC)C1CCC3(C)C(O)CCC3C1CC2` (stereo unspecified), the LC retention time turned out to be 11.5 min.
With `CC12CCC(=O)C=C1CC(O)C1C2CCC2(C)C(O)CCC12` (stereo unspecified), the LC retention time came to 7.06 min.
Take `CC12CCC(=O)C=C1CCC1C2C(O)CC2(C=O)C(C(=O)CO)CCC12` (stereo unspecified): the LC retention time worked out at 7.15 min.
For `CC12CCC(=O)C=C1CCC1C2C(O)CC2(C)C(C(=O)C(=O)O)CCC12` (stereo unspecified), the LC retention time was 8.1 min.
Regarding `CC(O)C1CCC2C3CCC4=CC(=O)CCC4(C)C3CCC12C` (stereo unspecified), the LC retention time amounted to 12 min.
Next, `CC12CCC(=O)C=C1CCC1C2C(O)CC2(C)C1CCC2(O)C(=O)CO` (stereo unspecified): 7.61 min; `COc1cc2c(cc1O)CCC1C2CCC2(C)C(O)CCC12` (stereo unspecified): 10.5 min.
For `CC12CCC3c4ccc(O)cc4CCC3C1CC(=O)C2=O` (stereo unspecified), the LC retention time was 7.82 min.
For the molecule `CC12CCC3c4ccc(O)cc4CC(O)C3C1CCC2O` (stereo unspecified), the LC retention time came to 7.15 min.
`CC12CCCC1C1CCC3CC(O)CCC3(C)C1CC2` (stereo unspecified): the LC retention time came to 12.9 min.
As to `CC(CCC(=O)O)C1CCC2C3CCC4CCCCC4(C)C3CC(O)C12C` (stereo unspecified), the LC retention time amounted to 16.7 min.
With `CC12CCC3C(CCC4=CC(=O)CCC43C=O)C1CCC2=O` (stereo unspecified) the figure was 9.42 min.
As for `CC12CCC3c4ccc(O)cc4C(O)CC3C1CCC2O` (stereo unspecified), the LC retention time stood at 7.01 min.
In the case of `O=CC12CC(O)C3C4CCC(=O)C=C4CCC3C1CCC2C(=O)CO` (stereo unspecified), the LC retention time amounted to 7.1 min.
Next, `CC12CCC3c4ccc(OS(=O)(=O)O)cc4CCC3C1CCC2=O` (stereo unspecified): 8.65 min.
Turning to `CC12CCC(O)CC1=CCC1C2CCC2(C)C(O)C(=O)CC12` (stereo unspecified), the LC retention time came out at 8.03 min.
Regarding `CC12CCC(=O)C=C1CCC1C2CCC2(C)C(O)CC(O)C12` (stereo unspecified), the LC retention time was 6.97 min.
With `CC12CCC(O)CC1=CC(O)C1C2CCC2(C)C(O)CCC12` (stereo unspecified), the LC retention time stood at 7.81 min.
Consider `CC12CCC(O)CC1=CCC1C2C(O)CC2(C)C1CCC2(O)C(=O)CO` (stereo unspecified), for which the LC retention time was found to be 8.15 min.
On to `CC12CCC3C4=C(CCC3C1CCC2O)C(=O)C(=O)C=C4` (stereo unspecified), for which the LC retention time was 7.81 min.
With `COc1cc2c(cc1O)CCC1C2CCC2(C)C(=O)CCC12` (stereo unspecified) the figure was 11.3 min.
With `CC12CCC3C(C(O)CC4CC(O)CCC43C)C1CCC2=O` (stereo unspecified), the LC retention time came to 8.74 min.
As to `CC12CC(=O)C3C(CCC4=CC(=O)CCC43C)C1CCC2=O` (stereo unspecified), the LC retention time turned out to be 8.68 min.
On to `CC12CCC(O)C=C1CCC1C2CCC2(C)C(O)CCC12` (stereo unspecified), for which the LC retention time is 9.76 min.
With `CC12CCC3c4cc(O)c(O)cc4CCC3C1CCC2=O` (stereo unspecified), the LC retention time came out at 8.07 min.
Next, `CC12CCC3C(CCC4=CC(=O)CCC43C(=O)O)C1CCC2C(=O)CO` (stereo unspecified): 8.03 min.
Take `CC(C(=O)O)C1CCC2C3C(O)CC4CC(O)CCC4(C)C3CC(O)C12C` (stereo unspecified): the LC retention time was 8.37 min.
With `CC12CCC3C(CCC4=CC(=O)CCC43C)C1CCC2=O` (stereo unspecified), the LC retention time amounted to 10.8 min.
Regarding `CC12CCC(=O)C=C1CCC1C2C(O)CC2(C)C(O)CCC12` (stereo unspecified), the LC retention time was determined as 8.2 min.
For the molecule `CC12CCC(=O)C=C1CCC1C2C(=O)CC2(C)C1CCC2(O)C(=O)CO` (stereo unspecified), the LC retention time came to 7.75 min.
For `CC(O)C1(O)CCC2C3CCC4=CC(=O)CCC4(C)C3CCC21C` (stereo unspecified), the LC retention time is 9.92 min.
For `CC12CCC3C(CCC4=CC(=O)CCC43C=O)C1CCC2O` (stereo unspecified), the LC retention time is 8.59 min.
As for `CC12CCC3C(CC=C4CC(OS(=O)(=O)O)CCC43C)C1CCC2=O` (stereo unspecified), the LC retention time stood at 9.91 min.
With `CC12CCC3c4ccc(O)c(O)c4CCC3C1CCC2O` (stereo unspecified), the LC retention time is 7.61 min.
